The values below come from patent US20040157845A1, “Vanilloid receptor ligands and their use in treatments” (Amgen Inc., priority 2003, published 2004).

Structures can show the parent of a compound that is named as a salt.

As for `CC(C)c1ccc(NC(=O)c2cnc(Cc3c(Cl)cccc3Cl)[nH]2)cc1` (as salt: hydrochloride) [Example 12, {2-[(2,6-Dichlorophenyl)methyl]imidazol-5-yl}-N-[4-(methylethyl)phenyl]-carboxamide], the melting point (in general, the temperature, or range, at which the solid turns liquid) was in the range of 210 to 212 °C. In the case of `O=C(Nc1ccc(Br)cc1)c1cnc(Cc2c(Cl)cccc2Cl)[nH]1` (as salt: hydrochloride) [Example 13, {2-[(2,6-Dichlorophenyl)methyl]imidazol-5-yl}-N-(4-bromophenyl)carboxamide] it was 253 to 254 °C. On to `O=C(Nc1ccc(C(F)(F)F)nc1)c1csc(Cc2ccccc2Cl)n1` [Example 1, {2-[(2-Chlorophenyl)methyl](1,3-thiazol-4-yl)}-N-[6-(trifluoromethyl)(3-pyridyl)]carboxamide], for which the melting point lay within 99 to 101 °C. The molecule `O=C(Nc1ccc(C(F)(F)F)cc1)c1csc(Nc2c(Cl)cncc2Cl)n1` [Example 2, {2-[(3,5-Dichloro(4-pyridyl))amino](1,3-thiazol-4-yl)}-N-[4-(trifluoromethyl)-phenyl]carboxamide] returned a melting point of 195 to 197 °C. The figure for `Cc1cccc(C)c1Nc1nc(C(=O)Nc2ccc(C(F)(F)F)cc2)cs1` [Example 3, {2-[(2,6-Dimethylphenyl)amino](1,3-thiazol-4-yl) }-N-[4-(trifluoromethyl)-phenyl]carboxamide] is 216 to 218 °C; for `Cc1cccc(C)c1Nc1nc(-c2nc3cc(C(F)(F)F)ccc3[nH]2)cs1` [Example 4, (2,6-Dimethylphenyl){4-[5-(trifluoromethyl)benzimidazol-2-yl](1,3-thiazol-2-yl)}amine] it is 250 to 251 °C; for `FC(F)(F)c1ccc2[nH]c(-c3csc(Nc4ncccc4Cl)n3)nc2c1` [Example 6, (3-Chloro(2-pyridyl)){4-[5-(trifluoromethyl)benzimidazol-2-yl](1,3-thiazol-2-yl)}amine] it is 207 to 208 °C. On to `Cc1nc(Cc2c(Cl)cccc2Cl)sc1C(=O)Nc1ccc(C(F)(F)F)cc1` [Example 7, {2-[(2,6-Dichlorophenyl)methyl]-4-methyl(1,3-thiazol-5-yl)}-N-[4-(trifluoromethyl)phenyl]carboxamide], for which the melting point was in the range of 180 to 183 °C. In the case of `FC(F)(F)c1ccc2nc(-c3csc(Cc4c(Cl)cccc4Cl)n3)[nH]c2c1` [Example 8, 2-[(2,6-Dichlorophenyl)methyl]-4-[6-(trifluoromethyl)benzimidazol-2-yl]-1,3-thiazole] it was 187 to 189 °C; in that of `CC(C)c1ccc(NC(=O)c2cnc(Cc3c(Cl)cccc3Cl)s2)cc1` [Example 9, {2-[(2,6-Dichlorophenyl)methyl](1,3-thiazol-5-yl)}-N-[4-(methylethyl)phenyl]-carboxamide], 169 to 175 °C.

Molecule `O=C(Nc1ccc(C(F)(F)F)cc1)c1cnc(Cc2c(Cl)cccc2Cl)s1` [Example 10, {2-[(2,6-Dichlorophenyl)methyl](1,3-thiazol-5-yl)}-N-[4-(trifluoromethyl)-phenyl]carboxamide] gave a melting point of 163 to 164 °C.

As for `O=C(Nc1ccc(C(F)(F)F)cc1)c1cnc(Cc2c(Cl)cccc2Cl)[nH]1` [Example 11, {2-[(2,6-Dichlorophenyl)methyl]imidazol-5-yl}-N-[4-(trifluoromethyl)-phenyl]carboxamide], the melting point lay in the range of 253 to 255 °C. On to `O=C(Nc1ccc(C(F)(F)F)cc1)c1nc(Nc2c(Cl)cccc2Cl)sc1Br` [Example 14, {2-[(2,6-Dichlorophenyl)amino]-5-bromo(1,3-thiazol-4-yl)}-N-[4-(trifluoromethyl)phenyl]carboxamide], for which the melting point was in the range of 151 to 162 °C. The figure for `FC(F)(F)c1ccc2nc(-c3csc(Nc4c(Cl)cccc4Cl)n3)[nH]c2c1` [Example 15, (2,6-Dichloro-phenyl)-[4-(6-trifluoromethyl-1H-benzoimidazol-2-yl)-thiazol-2-yl]-amine] is 242 to 243 °C; for `O=C(Nc1ccc(F)c(F)c1)c1csc(Cc2c(Cl)cccc2Cl)n1` [Example 17, {2-[(2,6-Dichlorophenyl)methyl](1,3-thiazol-4-yl)}-N-(3,4-difluorophenyl)-carboxamide] it is 113 to 116 °C; for `Clc1cc2nc(-c3csc(Cc4c(Cl)cccc4Cl)n3)[nH]c2cc1Cl` [Example 18, 4-(5,6-Dichlorobenzimidazol-2-yl)-2-[(2,6-dichlorophenyl)methyl]-1,3-thiazole] it is 245 to 247 °C. `O=C(Nc1ccc(C(F)(F)F)cc1)c1coc(Cc2c(Cl)cccc2Cl)n1` [Example 19, {2-[(2,6-Dichlorophenyl)methyl](1,3-oxazol-4-yl)}-N-[4-(trifluoromethyl)-phenyl]carboxamide] displayed a melting point of 182 to 184 °C. Molecule `FC(F)(F)c1ccc2nc(-c3c[nH]c(Cc4c(Cl)cccc4Cl)n3)[nH]c2c1` [Example 20, 2-{2-[(2,6-Dichlorophenyl)methyl]imidazol-4-yl}-6-(trifluoromethyl)-benzimidazole] gave a melting point of 281 to 282 °C. In the case of `FC(F)(F)c1ccc2nc(-c3coc(Cc4c(Cl)cccc4Cl)n3)[nH]c2c1` [Example 21, 2-[(2,6-Dichlorophenyl)methyl]-4-[6-(trifluoromethyl)benzimidazol-2-yl]-1,3-oxazole] it was 201 to 202 °C; in that of `CC(=O)c1ccc(NC(=O)c2csc(Cc3c(Cl)cccc3Cl)n2)cc1` [Example 22], 98.8 to 106.9 °C; in that of `COc1ccc(NC(=O)c2csc(Cc3c(Cl)cccc3Cl)n2)cn1` [Example 23], 137.7 to 138.8 °C.

The molecule `O=C(Nc1ccc(C(F)(F)F)nc1)c1csc(Cc2c(Cl)cccc2Cl)n1` [Example 24] yielded a melting point of 139.1 to 147.1 °C. The molecule `CC(C)c1ccc(NC(=O)c2csc(Cc3ccccc3Cl)n2)cc1` [Example 25] came in with a melting point of 85.4 to 92.7 °C. Take `O=C(Nc1ccc(C(F)(F)F)cc1)c1csc(Cc2ccccc2Cl)n1` [Example 26]: the melting point was in the range of 85.5 to 94 °C.

For the molecule `O=C(Nc1ccc(C(F)(F)F)nc1)c1csc(Cc2ccccc2F)n1` [Example 31], the melting point was in the range of 104.8 to 107.7 °C.

As to `O=C(Nc1ccc(Br)cc1)c1csc(Cc2ccccc2F)n1` [Example 32], the melting point was 100.8 to 101 °C. Molecule `O=C(Nc1ccc(Br)cc1)c1csc(Cc2ccccc2Cl)n1` [Example 33] had a melting point of 109.4 to 110.6 °C. On to `O=C(Nc1ccc(Br)cc1)c1csc(Cc2c(F)cccc2Cl)n1` [Example 34], for which the melting point was in the range of 111.8 to 112.5 °C. As for `O=C(Nc1ccc(C(F)(F)F)nc1)c1csc(Cc2c(F)cccc2Cl)n1` [Example 35], the melting point was in the range of 123.4 to 125.1 °C. The figure for `COc1ccccc1Cc1nc(C(=O)Nc2ccc(Br)cc2)cs1` [Example 36] is 138 to 138.4 °C; for `Cc1ccccc1Cc1nc(C(=O)Nc2ccc(Br)cc2)cs1` [Example 37] it is 121.9 to 123.4 °C; for `COc1ccccc1Cc1nc(C(=O)Nc2ccc(C(F)(F)F)cc2)cs1` [Example 38] it is 107.2 to 108.2 °C.

For the molecule `Cc1ccccc1Cc1nc(C(=O)Nc2ccc(C(F)(F)F)nc2)cs1` [Example 39], the melting point fell in the range of 140.2 to 141.3 °C. Take `O=C(Nc1ccc(Br)cc1)c1csc(Cc2c(Cl)cccc2Cl)n1` [Example 40]: the melting point fell in the range of 126.6 to 132 °C. Molecule `O=C(Nc1ccc(C(O)(C(F)(F)F)C(F)(F)F)cc1)c1csc(Cc2c(Cl)cccc2Cl)n1` [Example 43] registered a melting point of 197 to 197.8 °C. The molecule `O=C(Nc1ccc(C(F)(F)C(F)(F)F)cc1)c1csc(Cc2c(Cl)cccc2Cl)n1` [Example 47] yielded a melting point of 95 to 96.4 °C. Regarding `CC(C)(C)c1ccc(NC(=O)c2csc(Cc3c(Cl)cccc3Cl)n2)cc1` [Example 49], the melting point was in the range of 139 to 141 °C. In the case of `CN(C)c1ccc(NC(=O)c2csc(Cc3c(Cl)cccc3Cl)n2)cc1` [Example 50] it was 172 to 174 °C.

In turn, `O=C(Nc1ccc(C(F)(F)F)cc1)c1csc(Nc2cccnc2Cl)n1` [Example 51] registered a melting point of 232.5 to 234.3 °C. In the case of `O=C(Nc1ccc(Br)cc1)c1csc(Nc2cccnc2Cl)n1` [Example 52], the melting point was in the range of 214.7 to 216.2 °C.

Molecule `O=C(Nc1ccc(Br)cc1)c1csc(Nc2c(Cl)cncc2Cl)n1` [Example 53] registered a melting point of 194.9 to 196.6 °C. In the case of `O=C(Nc1ccc(C(O)(C(F)(F)F)C(F)(F)F)cc1)c1csc(Nc2ccccc2F)n1` [Example 54] it was 158 to 160 °C. Take `O=C(Nc1ccc(Br)cc1)c1csc(Nc2ccccc2F)n1` [Example 55]: the melting point lay within 198.4 to 199.7 °C. Molecule `O=C(Nc1ccc(Br)cc1)c1csc(Nc2c(Cl)cccc2Cl)n1` [Example 56] registered a melting point of 125.9 to 126.9 °C.

`CC(C)c1ccc(NC(=O)c2csc(Nc3ccccc3F)n2)cc1` [Example 58]: the melting point lay in the range of 136.5 to 180.1 °C. Turning to `O=C(Nc1ccc(Br)cc1)c1csc(Nc2ccccc2Cl)n1` [Example 60], the melting point was in the range of 220.5 to 221.3 °C.

As to `O=C(Nc1ccc(C(F)(F)F)cc1)c1csc(Nc2ccccc2Cl)n1` [Example 61], the melting point fell in the range of 192.5 to 193.1 °C. The molecule `O=C(Nc1ccc(C(F)(F)F)cc1)c1csc(Nc2c(Cl)cccc2Cl)n1` [Example 63, {2-[(2,6-dichlorophenyl)amino](1,3-thiazol-4-yl)}-N-[4-(trifluoromethyl)phenyl]-carboxamide] returned a melting point of 199 to 200 °C.

As for `Cc1cccc(C)c1Nc1nc(C(=O)Nc2ccc(C(C)C)cc2)cs1` [Example 64], the melting point fell in the range of 128 to 133 °C.

Take `Cc1cccc(C)c1Nc1nc(C(=O)Nc2ccc(Br)cc2)cs1` [Example 65]: the melting point lay within 208 to 209 °C. `O=C(Nc1ccc(C(F)(F)F)cc1)c1csc(Nc2ccccc2C(F)(F)F)n1` [Example 66] showed a melting point of 128 to 130 °C. Turning to `CC(C)c1ccc(NC(=O)c2csc(Nc3ccccc3C(F)(F)F)n2)cc1` [Example 67], the melting point fell in the range of 96 to 100 °C. The figure for `O=C(Nc1ccc(Br)cc1)c1csc(Nc2ccccc2C(F)(F)F)n1` [Example 68] is 151 to 153 °C.
